# Measured values published in patent US10350189B2, “Method for transnasal delivery of blood-brain barrier permeation agent and therapeutic agent” (priority 2015, dated 2019).
# Entries after “also recorded” stand apart in the source; their conditions may differ.
# Columns and labels:
# [1] = cited from earlier work
# [2] = system: BBB of the rat test subjects; assay: BBB permeability by Evans Blue concentration in brain after intranasal topical application to the SPG; type: in vivo
# Excerpt: Data are presented as mean±SEM. […] A P value of less than 0.05 was considered significant.
# Male Sprague-Dawley rats [3] = assay: Cerebral blood flow by Laser Speckle Contrast Analysis after intranasal application to the SPG; type: in vivo, rat; conditions: rivastigmine-treated (1 and 2 mg/kg) vs saline
# Procedure: (§1) Two studies were designed for this project, using a total of 42 rats.
# Animals anesthetized with urethane were secured into a stereotactic apparatus (David Kopf Instruments, Tujunga, Calif.) and a midline incision was made on their scalp. The skull was slowly thinned using a dremel, working in 30 second periods to minimize heat caused by friction. Cerebral blood flow was measured using Laser Speckle Contrast Analysis (LASCA) technology with a PeriCam PSI HR system (Perimed, Inc., Ardmore, Pa.), captured in real time and analyzed using PIMSoft software (Perimed).
# GraphPad Instat 2.00 was used to conduct a power analysis. […] Data are presented as mean±SEM. The significance of differences for mean arterial pressure, heart rate and cerebral blood flow was estimated by 2-way analysis of variance followed by Tukey's post hoc test. One-way analysis of variance followed by Tukey's post hoc test was used to estimate significance for BBB permeability. A P value of less than 0.05 was considered significant. The statistical analysis was processed with GraphPad Prism 6.05 (GraphPad, San Diego, Calif.).
# Male Sprague-Dawley rats [4] = assay: Mean arterial pressure after intranasal application to the SPG; type: in vivo, rat
# Procedure: (§2) Male Sprague-Dawley rats (Harlan, Indianapolis, Ind.) weighing 300-350 g were allowed to acclimate for at least 4 days prior to experimentation. Rats were housed 2 per cage in a room with controlled light (6:00 a.m. to 6:00 p.m.), humidity (50±10%) and temperature (23±1° C.). Animal care and use for experimental procedures was approved by and in accordance with the guidelines of the Midwestern University Institutional Animal Care and Use Committee (IACUC).
# (§3) All drugs/solutions were freshly prepared on the day of administration using sterile saline (0.9% NaCl, Hospira, Inc., Lake Forest, Ill.). Urethane (ethyl carbamate, Sigma-Aldrich, St. Louis, Mo.) was administered intraperitoneally (IP) at a dose of 1.5 g/kg. […] Evans blue (5 mL/kg) was administered intravenously (IV) via left femoral vein cannula.
# as §1
# (§4) Rats were anesthetized with urethane (1.5 g/kg, IP) and immobilized on a surgical board equipped with a controlled heating pad. Core temperature, measured via rectal probe, was maintained at 37±1° C. In order to maintain blood pO2, pCO2 and pH, and to avoid the effect of respiration on blood pressure (BP) and heart rate (HR), animals were kept on artificial respiration via an endotracheal cannula connected to a rodent ventilator (Model 683, Harvard Apparatus, Inc., Holliston, Mass.). […]
# Male Sprague-Dawley rats [5] = assay: Heart rate after intranasal application to the SPG; type: in vivo, rat
# Procedure: as §2, §3, §1, §4
# [6] = 1, 2 or 4 mg/kg to the SPG via intranasal cannula
compound,measurement,setting,value
C/C=C1\[C@H]2C=C(C)C[C@]1(N)c1ccc(=O)[nH]c1C2 [huperzine],solubility in water,[1],about 0.188 mg/mL
CCN(C)C(=O)Oc1cccc([C@H](C)N(C)C)c1 [rivastigmine],"BBB permeability, in words","[2]; 1 mg/kg compared with saline, 2 and 4 mg/kg",significantly higher than saline; also recorded: greatest permeabilization
same,"BBB permeability, in words","[2]; Study I, 2 mg/kg rivastigmine compared with 0.4 mg/kg neostigmine",slightly increased permeability of the BBB over neostigmine
same,"BBB permeability, in words (Evans Blue dye in the CNS)","[2]; topical administration to the SPG, overall conclusion",increase in BBB permeability
same,cerebral blood flow,Male Sprague-Dawley rats [3],No significant differences
same,solubility in water,[1],about 2.04 mg/mL
same,mean arterial pressure,Male Sprague-Dawley rats [4]; [6],did not significantly alter
same,heart rate,Male Sprague-Dawley rats [5]; [6],did not significantly vary
CNC(=O)Oc1ccc2c(c1)[C@]1(C)CCN(C)[C@@H]1N2C [physostigmine],solubility in water,[1],about 7.76 mg/mL
COc1ccc2c3c1O[C@H]1C[C@@H](O)C=C[C@@]31CCN(C)C2 [galantamine],solubility in water,[1],about 10 mg/mL
CN(C)C(=O)Oc1cccc([N+](C)(C)C)c1 [neostigmine],mean arterial pressure,"Male Sprague-Dawley rats [4]; 0.4 mg/kg, at 15 and 30 min postadministration",slight decrease in mean arterial pressure
same,heart rate,"Male Sprague-Dawley rats [5]; 0.4 mg/kg, over time",slight decrease in heart rate
